#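 Assay format: 96-well plates, 48-hour exposure. Abbreviation: GI50, concentration required for 50% inhibition of growth.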 Active and inactive are the calls of the source. Rule as the data show it: active = GI50 up to about 1.1 µM and inactive = higher.
# Tests used:
# Experiment in all cases: inhibition of tumour cell growth, NCI panel, 48 h
# HCC 2998 = system: HCC 2998
# NCI/ADR-RES = system: NCI/ADR-RES
# SN12C = system: SN12C
# MCF7 = system: MCF7
# COLO 205 = system: COLO 205
# BT-549 = system: BT-549
# OVCAR-5 = system: OVCAR-5
# NCI-H460 = system: NCI-H460
# NCI-H23 = system: NCI-H23
# UACC-62 = system: UACC-62
# MDA-N = system: MDA-N
# NCI-H226 = system: NCI-H226
# OVCAR-3 = system: OVCAR-3
# OVCAR-8 = system: OVCAR-8
# TK-10 = system: TK-10
# M14 = system: M14
# HT-29 = system: HT-29
# EKVX = system: EKVX
# SR = system: SR
# SF-539 = system: SF-539
# A498 = system: A498
# CAKI-1 = system: CAKI-1
# UO-31 = system: UO-31
# SK-OV-3 = system: SK-OV-3
# UACC-257 = system: UACC-257
# PC-3 = system: PC-3
# RPMI-8226 = system: RPMI-8226
# DU-145 = system: DU-145
# CCRF-CEM = system: CCRF-CEM
# SK-MEL-2 = system: SK-MEL-2
# SNB-19 = system: SNB-19
# 786-0 = system: 786-0
# U-251 = system: U-251
# IGROV-1 = system: IGROV-1
# MDA-MB-435 = system: MDA-MB-435
# SK-MEL-28 = system: SK-MEL-28
# LOX IMVI = system: LOX IMVI
# MOLT-4 = system: MOLT-4
# ACHN = system: ACHN
# SK-MEL-5 = system: SK-MEL-5
# SF-295 = system: SF-295
# KM12 = system: KM12
# HL-60 = system: HL-60
# HCT-15 = system: HCT-15
# HCT-116 = system: HCT-116
# A549 = system: A549
# HOP-92 = system: HOP-92
# K562 = system: K562
# MDA-MB-231 = system: MDA-MB-231
# OVCAR-4 = system: OVCAR-4
# HOP-62 = system: HOP-62
# SW-620 = system: SW-620
# SF-268 = system: SF-268
# Malme-3M = system: Malme-3M
# T47D = system: T47D
# SNB-75 = system: SNB-75
# Hs-578T = system: Hs-578T
# NCI-H522 = system: NCI-H522
smiles,measurement,setting,value
CCOC(=O)CC[C@H](NC(=O)N[C@H](C)c1ccccc1)C(=O)OCC,GI50,HCC 2998,25.9 µM (inactive)
same,GI50,NCI/ADR-RES,22.8 µM (inactive)
same,GI50,SN12C,40.6 µM (inactive)
same,GI50,MCF7,32.7 µM (inactive)
same,GI50,COLO 205,18.7 µM (inactive)
same,GI50,BT-549,> 100 µM (inactive)
same,GI50,OVCAR-5,> 100 µM (inactive)
same,GI50,NCI-H460,> 100 µM (inactive)
same,GI50,NCI-H23,89.1 µM (inactive)
same,GI50,UACC-62,16.1 µM (inactive)
same,GI50,MDA-N,18.6 µM (inactive)
same,GI50,NCI-H226,> 100 µM (inactive)
same,GI50,OVCAR-3,18 µM (inactive)
same,GI50,OVCAR-8,> 100 µM (inactive)
same,GI50,TK-10,42.8 µM (inactive)
same,GI50,M14,14.8 µM (inactive)
same,GI50,HT-29,> 100 µM (inactive)
same,GI50,EKVX,> 100 µM (inactive)
same,GI50,SR,84.9 µM (inactive)
same,GI50,SF-539,14.7 µM (inactive)
same,GI50,A498,> 100 µM (inactive)
same,GI50,CAKI-1,> 100 µM (inactive)
same,GI50,UO-31,29.2 µM (inactive)
same,GI50,SK-OV-3,> 100 µM (inactive)
same,GI50,UACC-257,18.3 µM (inactive)
same,GI50,PC-3,84.7 µM (inactive)
same,GI50,RPMI-8226,41 µM (inactive)
same,GI50,DU-145,83.2 µM (inactive)
same,GI50,CCRF-CEM,22.6 µM (inactive)
same,GI50,SK-MEL-2,23.4 µM (inactive)
same,GI50,SNB-19,> 100 µM (inactive)
same,GI50,786-0,37.9 µM (inactive)
same,GI50,U-251,39.8 µM (inactive)
same,GI50,IGROV-1,20.8 µM (inactive)
same,GI50,MDA-MB-435,27.9 µM (inactive)
same,GI50,SK-MEL-28,20.9 µM (inactive)
same,GI50,LOX IMVI,55.7 µM (inactive)
same,GI50,MOLT-4,20.1 µM (inactive)
same,GI50,ACHN,53.5 µM (inactive)
same,GI50,SK-MEL-5,37 µM (inactive)
same,GI50,SF-295,> 100 µM (inactive)
same,GI50,KM12,73.1 µM (inactive)
same,GI50,HL-60,> 100 µM (inactive)
same,GI50,HCT-15,> 100 µM
same,GI50,HCT-116,> 100 µM (inactive)
same,GI50,A549,> 100 µM (inactive)
same,GI50,HOP-92,22 µM (inactive)
same,GI50,K562,36.1 µM (inactive)
same,GI50,MDA-MB-231,28.6 µM (inactive)
same,GI50,OVCAR-4,52.1 µM (inactive)
same,GI50,HOP-62,> 100 µM (inactive)
same,GI50,SW-620,> 100 µM (inactive)
c1cc2nnc1SCCSCCSCCSc1ccc(nn1)SCCSCCSCCS2,GI50,NCI/ADR-RES,> 100 µM (inactive)
same,GI50,SF-268,> 100 µM (inactive)
same,GI50,SN12C,> 100 µM (inactive)
same,GI50,Malme-3M,> 100 µM (inactive)
same,GI50,T47D,> 100 µM (inactive)
same,GI50,COLO 205,> 100 µM (inactive)
same,GI50,NCI-H460,> 100 µM (inactive)
same,GI50,UACC-62,> 100 µM (inactive)
same,GI50,OVCAR-3,> 100 µM (inactive)
same,GI50,OVCAR-8,> 100 µM (inactive)
same,GI50,M14,> 100 µM (inactive)
same,GI50,HT-29,> 100 µM (inactive)
same,GI50,EKVX,> 100 µM (inactive)
same,GI50,SR,> 100 µM (inactive)
same,GI50,SNB-75,45.7 µM (inactive)
same,GI50,SK-OV-3,> 100 µM (inactive)
same,GI50,Hs-578T,64.7 µM (inactive)
same,GI50,NCI-H522,> 100 µM (inactive)
same,GI50,UACC-257,> 100 µM (inactive)
same,GI50,PC-3,> 100 µM (inactive)
same,GI50,SK-MEL-2,> 100 µM (inactive)
same,GI50,IGROV-1,> 100 µM (inactive)
same,GI50,LOX IMVI,> 100 µM (inactive)
same,GI50,ACHN,> 100 µM (inactive)
same,GI50,SK-MEL-5,> 100 µM (inactive)
same,GI50,SF-295,> 100 µM (inactive)
same,GI50,HCT-15,> 100 µM
same,GI50,A549,> 100 µM (inactive)
same,GI50,HOP-92,57.4 µM (inactive)
same,GI50,MDA-MB-231,> 100 µM (inactive)
same,GI50,OVCAR-4,> 100 µM (inactive)
same,GI50,HOP-62,44.9 µM (inactive)
same,GI50,SW-620,> 100 µM (inactive)
